Patent US20220041616A1, “SPIRO COMPOUND AND MEDICAL USES THEREOF” (The National Institutes of Pharmaceutical R&D Co., Ltd., priority 2018, published 2022)

The compounds below were run against T1, Pyruvate Carboxylase (PC) (Bos taurus, UniProt Q29RK2) (assay: In vitro inhibition of pyruvate carboxylase (PC) activity, coupling method). Conditions: top concentration 50 μM.
T1 construct: purchased Sigma
T1 sequence (Q29RK2 21-1178): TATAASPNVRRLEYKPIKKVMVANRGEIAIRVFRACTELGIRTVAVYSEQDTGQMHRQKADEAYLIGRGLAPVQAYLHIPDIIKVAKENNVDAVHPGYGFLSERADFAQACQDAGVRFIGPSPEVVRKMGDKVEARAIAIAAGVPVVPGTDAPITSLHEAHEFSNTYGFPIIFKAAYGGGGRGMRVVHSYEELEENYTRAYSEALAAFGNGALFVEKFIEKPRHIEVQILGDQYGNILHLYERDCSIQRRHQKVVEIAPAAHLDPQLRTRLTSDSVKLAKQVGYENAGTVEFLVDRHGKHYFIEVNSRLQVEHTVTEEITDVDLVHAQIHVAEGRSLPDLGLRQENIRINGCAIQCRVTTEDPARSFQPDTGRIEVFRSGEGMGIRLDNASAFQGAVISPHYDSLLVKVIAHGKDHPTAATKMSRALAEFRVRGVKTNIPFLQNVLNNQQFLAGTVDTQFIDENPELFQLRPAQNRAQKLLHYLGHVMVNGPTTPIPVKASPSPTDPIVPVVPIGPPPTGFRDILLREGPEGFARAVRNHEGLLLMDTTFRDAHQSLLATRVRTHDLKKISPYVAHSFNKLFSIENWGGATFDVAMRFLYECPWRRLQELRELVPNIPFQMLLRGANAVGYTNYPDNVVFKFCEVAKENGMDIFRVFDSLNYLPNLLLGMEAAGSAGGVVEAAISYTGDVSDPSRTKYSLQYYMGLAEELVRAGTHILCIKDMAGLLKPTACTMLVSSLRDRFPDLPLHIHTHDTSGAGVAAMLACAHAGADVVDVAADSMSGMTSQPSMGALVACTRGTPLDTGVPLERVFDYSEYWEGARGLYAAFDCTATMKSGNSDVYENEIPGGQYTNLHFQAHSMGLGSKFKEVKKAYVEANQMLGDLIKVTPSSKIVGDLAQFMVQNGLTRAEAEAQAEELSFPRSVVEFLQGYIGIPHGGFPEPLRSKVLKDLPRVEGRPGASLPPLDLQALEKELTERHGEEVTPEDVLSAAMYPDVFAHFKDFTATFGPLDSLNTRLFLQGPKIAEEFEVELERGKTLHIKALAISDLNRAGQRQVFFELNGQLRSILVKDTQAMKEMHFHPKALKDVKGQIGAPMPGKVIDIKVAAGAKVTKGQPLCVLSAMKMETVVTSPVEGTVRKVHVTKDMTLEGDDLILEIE
Assay type: biochemical
Description: The in vitro analysis of the inhibitory effect of the present compound on PC activity was carried out by a coupling method. The PC reaction product oxaloacetate and β-NADH undergo a redox reaction under the catalysis of malate dehydrogenase, generating malic acid and NAD^+. Accordingly, the inhibition ability of the compound on PC can be reflected by detecting the change of absorbance value at 340 nm.
b. 65.7 μL PC enzyme reaction buffer (201 mM triethanolamine, 7.5 mM magnesium sulfate, 0.18% bovine serum albumin) was added to each well of a 96-well dilution plate (249944, Nunc), and then 1 μL of the serially diluted compound to be tested in step a was added to each well.
c. 10 μL of compound (prepared in step b) was added to each well of a 384-well test plate (3702, Corning). The reaction system with ZnCl2 at a final concentration of 500 μM was used as positive control; the reaction system with no compound but DMSO at a final concentration of 0.5% was used as negative control.
d. 10 μL of PC enzyme (Sigma, 0.15 U/ml stock solution of PC enzyme dissolved in 0.15 mM Tris-HCl pH 7.4, 0.006 mM Mg(AcO)2, 0.15% glycerol, and 0.003 mM EDTA) was added to each well of the 384-well test plate (prepared in step c), centrifuged at 1000 rpm for 1 min, and incubated at room temperature for 15 min.
e. 10 μL of substrate mixture (1.5 mM sodium pyruvate, 1.5 mM ATP, 0.15 mM acetyl-CoA, 45 mM sodium bicarbonate, 0.69 mM NADH, 3 U/ml malate dehydrogenase, 201 mM triethanolamine, 7.5 mM magnesium sulfate, and 0.18% bovine serum albumin) was added to each well of the 384-well test plate (prepared in step d), and centrifuged at 1000 rpm for 1 min. The final concentrations of each component in the PC enzymatic reaction system: 0.05 U/ml pyruvate carboxylase, 0.5 mM sodium pyruvate, 0.5 mM ATP, 15 mM sodium bicarbonate, 0.23 mM β-NADH, 1 U/ml malic acid dehydrogenase, and 0.05 mM acetyl-CoA. Test compound concentrations: 50 μM, 16.667 μM, 5.556 μM, 1.852 μM, 0.617 μM, 0.206 μM, 0.0686 μM, 0.0229 μM, 0.00763 μM, 0.00254 μM, 0.000847 μM and 0.000282 μM. The final concentration of DMSO was 0.5% (v/v).
f. The absorbance at 340 nm was read by using EnVision 2104 plate reader (Perkin Elmer) with reading every 1 min for 40 min.
GraphPad Prism 6 software was used to perform a linear fit, and the concentration of each compound and the slope of the positive and negative controls were calculated. The inhibition percentage was calculated according to the following formula: 100×[1−(compound−average value of positive control)/(average value of negative control−average value of positive control)].
IC50 of the compound was obtained using GraphPad Prism 6 software according to the following nonlinear fitting formula:
Y=Bottom+(Top−Bottom)/(1+10^((Log IC50−X)×HillSlope)), […]

IC50, > 50 µM:
COc1ccccc1C(CN1C(=O)C2(CC(C(=O)O)C2)C(=O)c2c1sc(-c1ncco1)c2C)OC1CCOCC1 (mixture of isomers) [Compound 8, 7′-(2-(2-methoxyphenyl)-2-((tetrahydro-2H-pyran-4-yl)oxy)ethyl)-3′-methyl-2′-(oxazol-2-yl)-4′,6′-dioxo-6′,7′-dihydro-4′H-spiro[cyclobutane-1,5′-thieno[2,3-b]pyridine]-3-carboxylic Acid]
COc1ccccc1C(CN1C(=O)C2(CCC(C(=O)O)C2)C(=O)c2c1sc(-c1ncco1)c2C)OC1CCOCC1 (single isomer, unassigned) [Compound 5b, 7′-(2-(2-methoxyphenyl)-2-((tetrahydro-2H-pyran-4-yl)oxy)ethyl)-3′-methyl-2′-(oxazol-2-yl)-4′,6′-dioxo-6′,7′-dihydro-4′H-spiro[cyclopentane-1,5′-thieno[2,3-b]pyridine]-3-carboxylic Acid]
COc1ccccc1C(CN1C(=O)C2(CC(C(=O)O)C2)C(=O)c2c1sc(-c1ncco1)c2C)OC1CCOCC1 (single isomer, unassigned) [Compound 8d, 7′-(2-(2-methoxyphenyl)-2-((tetrahydro-2H-pyran-4-yl)oxy)ethyl)-3′-methyl-2′-(oxazol-2-yl)-4′,6′-dioxo-6′,7′-dihydro-4′H-spiro[cyclobutane-1,5′-thieno[2,3-b]pyridine]-3-carboxylic Acid]
COc1ccccc1[C@H](CN1c2sc(-c3ncco3)c(C)c2C(=O)[C@]2(C[C@H](C(=O)O)C2)C1=O)OC1CCOCC1 [Compound 8c, 7′-(2-(2-methoxyphenyl)-2-((tetrahydro-2H-pyran-4-yl)oxy)ethyl)-3′-methyl-2′-(oxazol-2-yl)-4′,6′-dioxo-6′,7′-dihydro-4′H-spiro[cyclobutane-1,5′-thieno[2,3-b]pyridine]-3-carboxylic Acid]
